Experimental data: patent publication US11299515B2, “Optimized peptides for targeting human nerves and their use in image guided surgery, diagnostics and therapeutic” (The Regents of the University of California, priority 2017, dated 2022)
Entries after “also recorded” stand apart in the source; their conditions may differ. Residues, ends and D or L forms follow the SMILES beside them. *: point of attachment. Fluorescein(5-Mal) = O=C1OC2(c3ccc(O)cc3Oc3cc(O)ccc32)c2ccc(N3C(=O)CC(*)C3=O)cc21

How the values were obtained:
[1] = Mass spectroscopy analysis of urine after injection of nerve binding peptides
in vivo = settings: male, SKH, mouse, whole blood, iv, 100 nmol
Experimental: Five 8-week-old SKH male mice were injected intravenously with 100 nmol [10.75 mg/kg for 25 gm mouse] of FAM-HNP401 in 100 μl of sterile water. Prior to blood draw mice were anesthetized with a 1:1 cocktail of ketamine: midazolam. Tail pricks were performed at 1 min, 10 min, 20 min, 30 min, 1 hr, and 2 hrs after injection to collect 5 μl whole blood which was dissolved in 100 μl Agilent ICP-MS tuning buffer. Samples were centrifuged and equal volume of supernatants were analyzed using a Tecan fluorescence plate reader.

[2] = Stability in ex-vivo human plasma (LC-MS); settings: 37° C., 5 min vs 2 hours
Experimental: An equal volume of 1:1 acetonitrile:water with 2% acetic acid is added to precipitate the protein matter, supernatant is extracted for analysis by LC-MS on a C18 reverse phase column with gradient of 9:1 H2O+0.05% TFA:Acetonitrile+0.05% TFA to 1:9 H2O+0.05% TFA:Acetonitrile+0.05% TFA in 20 min.
The bladder was drained with a syringe and sutured to avoid spillage and contamination around prostate. […] Stability of FAM-HNP401 in human plasma at 5 minutes and 2 hours was determined by incubation of peptide dye conjugate in human serum prior to analysis by mass spectrometry.

human laryngeal nerve = test: Dose response by topical application on human laryngeal nerve sections; format: binding
Experimental: FIG. 25: Differential binding of nerve binding peptides to human and mouse tissue. Determination of optimal dose response by topical application of FAM-HNP401 on human laryngeal nerve sections at final concentration of 375 μM (A), 100 μM (B), 50 μM (C), 10 μM (D) and 1 μM (E), imaged with confocal microscopy with identical parameters and levelled equally for comparison. ** brightened 2 fold for viewing. Nerve to muscle contrast at high concentration of 375 μM for FAM-NP41 (F and G) and FAM-HNP401 (H and I) imaged on confocal microscopy and levelled for direct comparison. Mouse facial nerve (red arrows) with surrounding muscle treated with 375 μM (J), 100 μM (K) of FAM-NP41 or 375 μM (L), 100 μM (M) of FAMHNP401.
Dose response data set of FAM-HNP401 on human nerve tissue (FIG. 25:A-E) was acquired with 488 nm laser line, 10μm sections on glass at 10× magnification, 0.45 NA air objective lens. Gain set to 40, power set to 3% of laser power, pixel dwell value of 1.2 μs, aperture size of 1.1 μm and a pixel size of 0.3 μm/px with a 2 k by 2 k size image.
Human sural nerve, antebrachial nerve and laryngeal nerve and temporalis muscle were obtained under IRB protocol number 130837 for Dr. Quyen Nguyen. Human peripheral nerves (typically sural) were obtained from patients undergoing nerve resection procedures. […]

sciatic nerve = format: in vivo, mice; settings: 450 nmols i.v., SKH1 mice
Experimental: Either 150 or 450 nmoles of fluorescein labeled synthetic peptides were injected intravenously into mice. After a 2 hour waiting period for washout of nonspecific binding, mice were anesthetized and skin incisions were made over the dorsal surface of the hind legs to expose the sciatic nerve. Brightfield and fluorescent images were obtained with a dissecting microscope using Metamorph software (FIG. 1). Quantitation of fluorescence of nerves and adjacent non-nerve tissue was performed with Image J (FIG. 2). Peptides were also topically applied to human nerve sections. Nerves were freshly frozen in OTC prior to sectioning. Peptides were topically applied at concentration at 300 uM with images being shown for HNP401, HNP402, HNP404 and previous reported nerve binding peptides NP41 (FIG. 3)). Also shown are images for variants HNP301 ([…]) and NP124. NP713 was also tested and has not reported in a publication. NP713, is a derivative of NP41 with sequence […] that was enriched after 7 rounds of selection against mouse tissue, and was also found after 4 rounds of selection against human tissue. […] All D-amino acid controls for NP-41 and NP713 and non peptide conjugated carboxyfluorescein, are also shown. […] HNP401 was then tested for labeling of rat sciatic and rat prostate cavernosal nerve in-vivo. […] FIGS. 6 and 7 show in-vivo labeling of rat prostate cavernosal nerve with comparison to white light visualization.
Following anesthesia with intra-peritoneal injection of ketamine (80 mg/kg) and midazolam (40 mg/kg), FAM-NP41 or its variants were administered into mice retro-orbitally. After a washout period of 2-4 hours, the animals were anesthetized with ketamine (50 mg/ml) and xylazine (20 mg/ml). The bladder and prostate were exposed through a midline abdominal incision. The autonomic nerve along the cavernosal vessel in the prostate was imaged and recorded using a custom-made surgical imaging system. This system is a modified from Olympus MVX10 scope capable of hi-resolution fluorescence, RGB reflectance and realtime overlay with zoom from 0.6 to 5.7 cm field of view. Image) was used for quantitative analysis of nerve contrast for each peptide dye conjugate tested. Images of autonomic nerve in prostate were selected from the recorded files and magnified 300-400% prior to selection of ROI and measurement. Nerves and adjacent non-nerve tissues ROIs were hand-selected using polygonal selection tool at the same location from both of reflectance and fluorescence images. The mean and standard deviation of the pixel intensities within the selected areas were compared for nerves (mean=In, SD=σn) and adjacent background tissue (mean=Ib, SD=σb). Nerve to non-nerve contrast was calculated after background subtraction with formula |In−Ib|/(σn^2+σm^2)^0.5. For imaging the nerves in the prostate gland of male rats peptide dye conjugate were injected retro-orbitally. FAM-HNP401 was injected at a concentration of 13 mgs/kg followed by imaging after 15 minutes or alternatively a dose of 52 mgs/kg was used with imaging after 3 hours. Live animal surgery was performed under a ketamine-xylazine cocktail according to IACUC protocol. Sterile technique was used to expose the prostate; bladder was drained with a small syringe and sutured. The surgical field was washed with sterile saline prior to imaging. Mann-Whitney test was used to analyze data for both mice and rats to compare nerve intensity and nerve to non-nerve contrast between white light reflectance and fluorescence.

mouse facial nerve = test: Topical application on ex-vivo mouse facial nerve with surrounding muscle; format: binding; settings: 375 and 100 μM topical

With `CC(=O)N[C@@H](CO)C(=O)NCC(=O)N[C@@H](CCC(N)=O)C(=O)N[C@H](C(=O)N1CCC[C@H]1C(=O)N[C@@H](Cc1c[nH]c2ccccc12)C(=O)N[C@@H](CCC(=O)O)C(=O)N[C@@H](CCC(=O)O)C(=O)N1CCC[C@H]1C(=O)N[C@@H](Cc1ccc(O)cc1)C(=O)N[C@@H](Cc1ccc(O)cc1)C(=O)N[C@H](C(=O)N[C@H](C(=O)N[C@@H](CCCCN)C(=O)N[C@@H](CCCCN)C(=O)N[C@@H](CO)C(=O)N[C@@H](CO)C(=O)NCC(=O)NCC(=O)N[C@@H](CSC1CC(=O)N(c2ccc3c(c2)C(=O)OC32c3ccc(O)cc3Oc3cc(O)ccc32)C1=O)C(N)=O)C(C)C)C(C)C)C(C)C` (stereo partly drawn) [FAM-HNP401] (Ac-SGQVPWEEPYYVVKKSSGGC(Fluorescein(5-Mal))-NH2; N-terminus and C-terminus assumed) the “metabolism (species detected in urine)” value [1] was “partially metabolized”, the half-life (in vivo) was 30 min and the “stability in human plasma” value [2] was “remain intact at 2 hours; also recorded: stable”. The “concentration giving optimal nerve contrast” value (human laryngeal nerve; topical 1 to 375 μM) was 50 to 100 µM, the “concentration at which signal from human nerve saturates” value (human laryngeal nerve; topical up to 375 μM) was ≤ 100 µM and the “signal intensity for in-vivo binding to mouse sciatic nerve compared to FAM-NP41” value (sciatic nerve) was 2.3 ×. For the same compound, the “sciatic nerve fluorescent intensity compared to NP41” value (sciatic nerve; 2 h post injection) was 2.3 fold, the “nerve to surrounding muscle contrast” value (sciatic nerve; mouse thigh) was 5.79±0.81 and the “labeling of mouse facial nerve versus surrounding muscle” value (mouse facial nerve) was “poor contrast; also recorded: did not perform as well as FAM-NP41”.
